What was measured:
Assay type in all cases: physicochemical
Conditions in all cases: lipid:siRNA 25:1
[1] = RiboGreen assay of siRNA encapsulation efficiency, in vitro formulations of Lipid-Based Particles
Experimental: The mixing solution of cationic lipids, cholesterol, non-cationic lipids and PEG-lipids was prepared in ethanol (total concentration at 10 mg/mL). siSTABLE (purchased from ThermoFisher) (sense-5′ GGGGAAAGCUGGCAAGAUUUU-3′SEQ ID NO. 1, antisense-5′-AAUCUUGCCAGCUUUCCCCUU-3′ SEQ ID NO: 2) % stock solution was prepared in 10 mg/mL of solution by dissolving 10 mg siRNA in 1 mL of RNAse-free UltraPure Water. The calculated amount of siRNA solution was added to 1 mL of citrate buffer (pH 4.0, 20 mM), to provide an siRNA concentration of 0.2 mg/mL, and warmed to 60 C. The calculated amount of lipid solution was warmed to 60 C, transferred to a 0.5 mL syringe with 28½ gauge needle, and injected into the citrate buffer with stirring at 60 C. After 3 minutes, 3 mL of PBS solution at room temperature (pH 7.4) was added into the lipid mixture with stirring. The Lipid-Based Particle solution was cooled to room temperature.
(§1) The siRNA concentrations were measured using Quanti-iT RiboGreen RNA reagent (Molecular Probes, (R11490)). Vesicle sizes were characterized by dynamic light scattering with a DynaPro™ Plate Reader (Wyatt Technology) in 96-well half-area UV plate (Coring) after diluting the formulation sample (20 μL) in phosphate buffered saline (80 μL) at a pH of about 7-8. A 1% agarose gel-based assay was used for analyzing nuclease degradation and protection. Encapsulation efficiency (EE) was calculated using data obtained from a RiboGreen assay.
(§2) RNA concentration and encapsulation efficiency were determined using a Quant-iT® Ribogreen RNA reagent and kit available from Invitrogen. The siRNA was released from the Lipid-Based Particle using one of the following reagents: ethanol, Triton X-100, or phenol/chloroform. The siRNA concentration is quantified using fluorescent reading at 480 nm/520 nm.

[2] = Particle sizing assay (Zetasizer Nano ZS), in vivo formulations
Experimental: (§3) A round bottom flask was submerged into a 65° C. water bath. Citrate buffer (37.5 ml) of pH 4.0 was pipetted into the flask. The solution was stirred by a magnetic stirring bar at a speed of 900 rpm. Both the pH 4.0 citrate buffer and the lipid solution were pre-warmed in the 65° C. water bath for about 3 minutes. A siRNA solution (0.5 ml) was pipetted into the pH 4.0 citrate buffer. The 12.5 ml lipid mixture solution was injected through a 27 gauge needle into the citrate buffer in about 30 seconds. The needle tip was inserted into the solution during the injection. The resulting solution was stirred for 5 minutes at a speed of 900 rpm. The flask was pulled up from the water bath and a 50 ml pH 7.4 PBS buffer was added into the flask. The final solution was further mixed at a speed of 900 rpm for 5 minutes. For the diafiltration process, a dialysis filter (Millipore, 100K, Cat#PXB100C50) was used to remove ethanol in the above solution. When the volume was reduced to 20 ml during the initial diafiltration, 20 ml of pH 7.4 PBS was added to the sample solution. The diafiltration was continued until the volume was reduced to 20 ml. The diafiltration process was repeated 4 times. The volume of the sample solution was reduced to about 12 ml and pH 7.4 PBS was added to make the final volume of 15 ml. The 15 ml solution was filtered sequentially through the 0.45 and 0.22 μm sterile PVDF membrane filters (Millipore) and immediately transferred into a sterile vial.
For measurements of particle sizes and size distributions (PDI), lipid-based particles were prepared as described above. The particle solution (60 μL) was pipetted into a disposable cuvette (UVette, Eppendorf, cat#952010051) and measured in the “General Purpose” mode. Attenuator and position were optimized by the device. Measurements were performed using a Zetasizer Nano ZS (Malvern Instruments) equipped with a 4 mW He—Ne laser at a wavelength of 633 nm at 25° C. Scattered light was detected at a 173° backward scattering angle. The viscosity and refractive index of water at 25° C. was used for data analysis with the Dispersion Technology Software 5.00 (Malvern Instruments).

[3] = RiboGreen assay of siRNA encapsulation efficiency, in vivo formulations of Lipid-Based Particles
Experimental: as §2
The lipid solution was prepared (10 mg/ml) by dissolving the lipid in 200 proof ethanol. The lipid mixture solution is prepared according to the above composition in Table 5.
An siRNA (TetR_ODC—12, G.G.G.G.A.A.A.G.C.U.G.G.C.A.A.G.A.U.U.U.U SEQ ID NO: 1) (ThermoFisher) solution is prepared in a concentration of 10 mg/ml by dissolving 10 mg siRNA in 1 ml of DNAse/RNAse-free distilled water.
as §3

[4] = Particle sizing by dynamic light scattering (DynaPro plate reader), in vitro formulations
Experimental: as §1
Particle sizes and size distributions (PDI) were characterized by using dynamic light scattering (DLS). A DLS plate reader (Dynapro™, Wyatt Technology) was used for the DLS measurement. This DLS plate reader uses an 830 nm laser and the scattering angle is 158°. It also can control temperature from 4° C. to 70° C. A 96-well format was employed for the samples.
Samples for DLS analysis were prepared by mixing 20 μL of each sample stock solution with 80 μL PBS directly in the 96-well plate (#3697, Corning). Sample mixing was accomplished using a microplate shaker (Orbis, Mikura Ltd.). Plates were read at 20° C. with an acquisition time of 50 seconds for each sample, and data was analyzed with Wyatt Technology's Dynamics V6 software. To rule out potential multiple scattering artifacts, a second plate at 4-fold reduced sample concentrations was independently prepared by mixing 5 μL stock solutions with 95 μL PBS. Under our experimental conditions the results at the two concentrations were very similar, and the final reported result for each sample represents the average of values obtained from the two plates.

[5] = in vitro formulation b: Cationic lipid/PEG-cholesterol/DSPC/Chol 45/10/15/30 wt %
[6] = in vivo formulation A: Cationic lipid/Example 73/DSPC/Chol 45/10/15/30 wt %
[7] = in vitro formulation a: Cationic lipid/Example 73/DSPC/Chol 45/10/15/30 wt %
[8] = in vivo formulation C: Cationic lipid/Pal-PEG-Cera/DSPC/Chol 45/10/15/30 wt %
[9] = in vivo formulation I: Cationic lipid/PEG-DPPE/DSPC/Chol 45/10/15/30 wt %
[10] = in vivo formulation J: Cationic lipid/PEG-DSPE/DSPC/Chol 45/10/15/30 wt %
[11] = in vivo formulation L: Cationic lipid/PEG-DPG/DSPC/Chol 45/10/15/30 wt %

Row | % Encapsulation Efficiency [1, 5] [%] | Size [2, 6] [nm] | Size distribution (PDI) [2, 6] | Size [4, 5] [nm] | % Encapsulation Efficiency [1, 7] [%] | Size [4, 7] [nm] | Compound | also measured
1 | 96.9 | 140 | (0.15) | 123.2 | – | – | CCCCC/C=C\C/C=C\CCCCCCCCOCC(CCN(C)CCOC)OCCCCCCCC/C=C\C/C=C\CCCCC (stereo not shown) [Example 7, N-(2-methoxyethyl)-N-methyl-3,4-bis[(9Z,12Z)-octadeca-9,12-dienyloxy]butan-1-amine] | % Encapsulation Efficiency [3, 6]: 74%
2 | – | – | – | – | 86 | 130 | CCCCC/C=C\C/C=C\CCCCCCCCOC[C@@H](CCN(CC)CC)OCCCCCCCC/C=C\C/C=C\CCCCC [Example 22, N-{(3R)-3,4-bis[(9Z,12Z)-octadeca-9,12-dienyloxy]butyl}-N,N-diethylamine] | –
3 | 86.2 | 149 | (0.21) | 114.4 | – | – | CCCCC/C=C\C/C=C\CCCCCCCCOCC(CCN1CCC(N(C)C)C1)OCCCCCCCC/C=C\C/C=C\CCCCC (stereo not shown) [Example 17, 1-{3,4-bis[(9Z,12Z)-octadeca-9,12-dienyloxy]butyl}-N,N-dimethylpyrrolidin-3-amine] | Size [2, 8]: 101 nm; Size distribution (PDI) [2, 8]: (0.154); % Encapsulation Efficiency [3, 8]: 97%
4 | – | 108 | (0.18) | 96.3 | – | – | CCCCC/C=C\C/C=C\CCCCCCCCOCC(CCN1CCCCC1)OCCCCCCCC/C=C\C/C=C\CCCCC (stereo not shown) [Example 1, 1-{3,4-bis[(9Z,12Z)-octadeca-9,12-dienyloxy]butyl}piperidine] | % Encapsulation Efficiency [3, 6]: 74%
5 | – | – | – | – | 94.1 | 104 | CCCCC/C=C\C/C=C\CCCCCCCCOCC(CCN(CCOC)CCOC)OCCCCCCCC/C=C\C/C=C\CCCCC (stereo not shown) [Example 18, N,N-bis(2-methoxyethyl)-3,4-bis [(9Z,12Z)-octadeca-9,12-dienyloxy]butan-1-amine] | –
6 | – | 103 | (0.06) | – | 96.9 | 128 | CCCCC/C=C\C/C=C\CCCCCCCCOC[C@H](CCN1CCCC1)OCCCCCCCC/C=C\C/C=C\CCCCC [Example 21, 1-{(3S)-3,4-bis[(9Z,12Z)-octadeca-9,12-dienyloxy]butyl}pyrrolidine] | –
7 | – | 100 | (0.09) | – | 97.2 | 146 | CCCCC/C=C\C/C=C\CCCCCCCCOC[C@@H](CCN1CCCC1)OCCCCCCCC/C=C\C/C=C\CCCCC [Example 20, 1-{(3R)-3,4-bis[(9Z,12Z)-octadeca-9,12-dienyloxy]butyl}pyrrolidine] | –
8 | 97.5 | – | – | 136.6 | – | – | CCCCC/C=C\C/C=C\CCCCCCCCOCC(CCN(C)C)OCCCCCCCC/C=C\C/C=C\CCCCC (stereo not shown) [Example 4, N,N-dimethyl-3,4-bis[(9Z,12Z)-octadeca-9,12-dienyloxy]butan-1-amine] | –
9 | 88.3 | 160 | (0.19) | 105.8 | – | – | CCCCC/C=C\C/C=C\CCCCCCCCOCC(CCN(C)CCN(C)C)OCCCCCCCC/C=C\C/C=C\CCCCC (stereo not shown) [Example 9, N-{3,4-bis[(9Z,12Z)-octadeca-9,12-dienyloxy]butyl}-N,N′,N′-trimethylethane-1,2-diamine] | Size [2, 9]: 93.4 nm; Size distribution (PDI) [2, 9]: (0.069); Size [2, 10]: 98.1 nm; Size distribution (PDI) [2, 10]: (0.078); Size [2, 11]: 98.7 nm; Size distribution (PDI) [2, 11]: (0.056); % Encapsulation Efficiency [3, 6]: 87.5%; % Encapsulation Efficiency [3, 9]: 98%; % Encapsulation Efficiency [3, 10]: 98%; % Encapsulation Efficiency [3, 11]: 98%
10 | – | – | – | – | 94.2 | 152 | CCCCC/C=C\C/C=C\CCCCCCCCOCC(CCN1CCC(OC)CC1)OCCCCCCCC/C=C\C/C=C\CCCCC (stereo not shown) [Example 19, 1-{3,4-bis[(9Z,12Z)-octadeca-9,12-dienyloxy]butyl}-4-methoxypiperidine] | –
11 | 96.9 | 116 | (0.12) | 113.4 | 97.2 | 192 | CCCCC/C=C\C/C=C\CCCCCCCCOCC(CCN(CC)CC)OCCCCCCCC/C=C\C/C=C\CCCCC (stereo not shown) [Example 3, N,N-diethyl-3,4-bis[(9Z,12Z)-octadeca-9,12-dienyloxy]butan-1-amine] | –

Source: patent US20100055169A1, “CATIONIC LIPIDS AND USES THEREOF” (ABBOTT LABORATORIES, priority 2008, published 2010)
